Test results reported in patent US7749711B2, “Methods of assessing endothelial dysfunction using acute transient responses following fat administration” (priority 2003, dated 2010).

Test system: patients with documented CAD
Assay: Plasma LDL levels in CAD patients on simvastatin therapy
Assay type: in vivo, human
Settings: simvastatin 40 mg/day, after 4 months on therapy, 13 CAD patients, data not shown
From the text: For all studies, patients were recruited and screened for coronary artery disease (CAD) according to the following criteria.
Study Population: Human subjects with active vascular disease were recruited for this aspect of the study. They were screened by a history and physical exam, measurements of lipid profile and routine blood chemistries to include for example, CBC, TSH, free T4, ALT, AST, CPK, CRP, BUN, creatinine, glucose, hemoglobin A1c (if diabetic), urinalysis for protein and glucose. First preference was given to subjects with coronary artery disease. Exclusions included the use of lipid lowering or high dose angiotensin II—altering (or blocking) drugs within three months of the study. For the purposes of the following example, because of the limitations in finding subjects with coronary artery disease that are not on lipid lowering drugs or other vascular active drugs, subjects were also accepted with high coronary disease risk ratings as determined by Framingham Risk Assessment including both hard and soft risk predictors. […]
All lipid, lipoprotein, and apolipoprotein measurements were performed in the Emory Lipid Research Laboratory, a participant in the NHLBI/CDC Lipid Standardization Program. MDA proteins were measured in the Emory Lipid Research Laboratory using a commercially available kit. […]

## CCC(C)(C)C(=O)O[C@H]1C[C@@H](C)C=C2C=C[C@H](C)[C@H](CC[C@@H]3C[C@@H](O)CC(=O)O3)[C@H]21 [simvastatin]
  LDL levels reduced by an average of: 32.1%
